The text below walks through data of ChEMBL document CHEMBL1131789, “Synthesis and anticonvulsant activity of 3-aryl-5H-2,3-benzodiazephine AMPA antagonists” (1999).

SMILES strings stand for the structures. Calls of active or inactive are those of the source. No cut-off for these calls is given here.

The subject of one test is Mus musculus. Description: Ability to abolish the hindlimb tonic extensor components of a maximal electroshock-induced seizure in vivo. It is filed as functional. For orientation: In the maximal electroshock model the usual endpoint is tonic extension of the hind limbs.
Take `C[C@@H]1Cc2cc3c(cc2C(c2ccc(N)cc2)=NN1c1nncc2ccccc12)OCO3`: the ED50 stood at 7.8 mg/kg.

`C[C@@H]1Cc2cc3c(cc2C(c2ccc(N)cc2)=NN1c1ccccc1)OCO3` gave an ED50 of 1.47 mg/kg.

Take `CC(=O)N1N=C(c2ccc(N)cc2)c2cc3c(cc2C[C@H]1C)OCO3` [TALAMPANEL]: the ED50 was 0.48 mg/kg.

Take `C[C@@H]1Cc2cc3c(cc2C(c2ccc(N)cc2)=NN1c1nc2ccccc2s1)OCO3`: the 50% effect level (ED50) was put at a dose of 5 mg/kg.

For `C[C@@H]1Cc2cc3c(cc2C(c2ccc(N)cc2)=NN1c1nc2ccccc2[nH]1)OCO3`, the ED50 is 3.2 mg/kg.

In the case of `C[C@@H]1Cc2cc3c(cc2C(c2ccc(N)cc2)=NN1c1ccccn1)OCO3`, the ED50 was found to be 0.76 mg/kg.

A further test concerns Mus musculus. Description: Ability to abolish the hindlimb tonic extensor components of a maximal electroshock-induced seizure in vivo; NA means Not active at 10 mg/kg. In kind it is functional, organism-based. Further details: dose 10 mg/kg.
Consider `C[C@@H]1Cc2cc3c(cc2C(c2ccc(I)cc2)=NN1c1ccccn1)OCO3`, for which the ED50 entry is “inactive”.

On to `C[C@@H]1Cc2cc3c(cc2C(c2ccc(Cl)cc2)=NN1c1ccccn1)OCO3`, for which the ED50 entry was “inactive”.

Regarding `C[C@@H]1Cc2cc3c(cc2C(c2ccc(N)cc2)=NN1c1cccc2ccccc12)OCO3`, the ED50 entry is “inactive”.

Take `C[C@@H]1Cc2cc3c(cc2C(c2ccccc2)=NN1c1ccccn1)OCO3`: the ED50 result was “inactive”.

The test system of the next test is Mus musculus. The test is described as follows: Ability to abolish the hindlimb tonic extensor components of a maximal electroshock-induced seizure in vivo at 5 mg/kg; None mice protected. It is filed as functional.
The compound `C[C@@H]1Cc2cc3c(cc2C(c2ccc(N)cc2)=NN1c1nc2ccccc2s1)OCO3` came in with a Protection of 0%.

A further test has as its system Mus musculus. The test is described as follows: Ability to abolish the hindlimb tonic extensor components of a maximal electroshock-induced seizure in vivo; NA means Not active. In kind it is functional, organism-based.
Consider `C[C@@H]1Cc2cc3c(cc2C(c2ccc(N)cc2)=NN1c1nccc(C(F)(F)F)n1)OCO3`, for which the ED50 entry was “inactive”.

On to `C[C@@H]1Cc2cc3c(cc2C(c2ccc(N)cc2)=NN1c1ccc2ccccc2n1)OCO3`, for which the ED50 result is “inactive”.

In the next test the test system is Mus musculus. The test is described as follows: Ability to abolish the hindlimb tonic extensor components of a maximal electroshock-induced seizure in vivo at 10 mg/kg. It is filed as functional.
The compound `C[C@@H]1Cc2cc3c(cc2C(c2ccc(N)cc2)=NN1c1nc2ccccc2s1)OCO3` returned a Protection of 80%.

The compound `COC(=O)c1ccsc1N1N=C(c2ccc(N)cc2)c2cc3c(cc2C[C@H]1C)OCO3` had a Protection of 40%.

One may read the ED50 as the midpoint of the dose-response relation.
